Results: patent US20070082858A1, “Methods and compositions for the prevention of toxic side effects of aminoglycoside medications” (priority 2004, published 2007)

Assays:
MDCK cells [1] = test: GTTR uptake into MDCK cells under TRPV1 agonists/antagonists, cation channel blockers, cations and pH (30-60 seconds, 20° C., FATX fixation, confocal imaging); settings: 0.5 or 5 mM La^+++ in HBSS pH 7.3, 30 seconds
Source text: MDCK cells were used as a model system to test regulation of GTTR uptake by conditions known to produce or modify a cation current through the TRPV1 channel. Conditions tested were varying extracellular calcium concentrations, pH, specific agonists, specific antagonists, and the non-specific cation channel blocker Ruthenium Red. In addition, we pre-mixed PIP2 with GTTR to determine whether that anionic phospholipid, known to bind gentamicin, would alter GTTR uptake. All these assays were done at room temperature (20° C.), for 30 or 60 seconds, and using doses of GTTR of 5 to 10 μg/ml, which are far below the typical therapeutic level of <300 μg/ml. Buffers used for treatment were as described for each experiment. Cells were quickly washed to replace culture medium with treatment buffer, treated as indicated, washed again after treatment, fixed immediately with 4% formaldehyde and 0.5% Triton X-100 (FATX), and washed prior to imaging.
Methods: Cells were seeded into 8-well coverglass chambers at 3000 cells/well and grown for 5 days.
Cells were washed three times with the buffer to be used in the particular experiment, treated with GTTR and experimental variable for 30 or 60 seconds at 20° C., precluding endocytosis. Following treatment, cells were rinsed three times with buffer, then fixed and delipidated with 4% formaldehyde plus 0.5% Triton X-100 (FATX) for 45 minutes. Following fixation, cells were rinsed with PBS (Invitrogen, CA) for at least 4-6 times, or until foaming in the suction pipette ceased. In contrast to previous experiments, no FBS was present in the treatment media, allowing for more rapid uptake of the antibiotic-based GTTR.
MDCK cells were washed with Hank's buffered salt solution (HBSS; Invitrogen, CA), then placed into buffers of varying potassium concentrations. HBSS was mixed with equi-osmolar KCl/HBSS to produce the required K^+ concentrations. Cells were treated with 1 μg/mL GTTR for 1 minute, then washed and fixed as described above.
Cells were washed with PBS (Invitrogen, CA), then placed into buffers containing varying concentrations of calcium, obtained by mixing HBSS with equimolar CaCl2, each at pH 7.3. Cells were treated with 5 μg/mL of GTTR for 30 seconds, then washed and fixed as above.
Cells were washed with saline, then treated with 5 μg/mL of GTTR in saline buffers of varying pH for 30 seconds, then washed and fixed as above. Sodium hydroxide and hydrochloric acid were used to alter pH. These experiments were performed in three different saline buffers: (i) PBS (no calcium), (ii) a mixture of […] for a final calcium concentration of 0.32 mM, and (iii) a mixture of three parts PBS to one part HBSS for a final calcium concentration of 0.97 mM.
Cells were washed three times with Ca^++-free saline (0.9% NaCl), then treated with 5 μg/mL GTTR and one of the following for 30 seconds: TRPV1 agonists (resiniferatoxin [RTX]; or anandamide [AND]; Alexis Biochemicals, San Diego, Calif.); or antagonists (iodo-RTX, or SB 366791; Tocris, Ellisville, Mo.). Cells were then washed in saline and fixed as above.
Cells were washed three times with Ca^++-free 0.9% NaCl, then treated with 5 μg/mL GTTR and one of the following for 30 seconds: 100 μM Ruthenium Red, 100 μM Ruthenium Red plus one of the TRPV1 agonists or antagonists described above; or lanthanum (La^+++) at 0.5 or 5 mM.

MDCK cells [2] = test: Gentamicin immunolabeling of MDCK cells incubated with unlabeled gentamicin and La^+++; assay type: cell-based, canine; settings: 0.05, 0.5 and 5 mM La^+++, unlabeled gentamicin 30 seconds
Description: […] Cells were rinsed twice with PBS, fixed with 4% FA, then permeabilized with ice-cold methanol for 5 minutes, and rinsed 3 times with PBS, as described previously (Steyger et al., 2003). Cells were immunoblocked in 10% goat serum in PBS for 30 minutes, and then incubated with 50 μg/mL rabbit anti-gentamicin IgG (American Quaalex, San Clemente, Calif.) for 1 hour. After washing with 1% goat serum in PBS, cells were further incubated with 20 μg/mL Alexa-488-conjugated goat-anti-rabbit IgG antisera (Molecular Probes, Eugene, Oreg.) for 45 minutes, washed, post-fixed with 4% FA for 15 minutes, and washed again. For immunocytochemical controls, the primary IgG were omitted, or adsorbed with excess gentamicin (3 mg/mL) for 30 minutes prior to addition to cells. All wells were imaged using confocal microscopy.

[3] = system: bullfrog saccular explants; test: GTTR labeling of bullfrog saccular explants in vitro (specificity, Example 6); assay type: cell-based, Rana catesbeiana; settings: 300 μg/ml GTTR plus 40-fold excess unconjugated GT (12 mg/ml), 30 minutes
Description: Gentamicin sulfate (Sigma; 50 mg/ml in K2CO3, pH 9) and succinimidyl esters of Texas Red (Molecular Probes; 2 mg/ml in dimethyl formamide) were agitated together overnight to produce a gentamicin-Texas red conjugate (GTTR). Typically, 4.4 ml of 50 mg/ml (final volume) gentamicin sulfate (GT) was mixed with 0.6 ml of 2 mg/ml Texas Red esters (TR) to produce an approximately 300:1 molar ratio of GT:GTTR. A high ratio of free gentamicin to TR esters ensures a minimum of unbound TR molecules, and a binding ratio of 1 TR molecule to 1 GT molecule (Sandoval et al. 1998). Gentamicin sulfate has three isoforms with molecular weights of […], (C2) 463.5, and (C1a) 477.6. Texas Red succinimidyl esters have a molecular weight of 817. […]
For confocal microscopy, excised saccular explants were individually pre-loaded (for 40 minutes) with 50 μM MitoTracker, 50 nM Lysotracker Green, 1 μM NBD-ceramide and 1 μM ERtracker (Molecular Probes) in Wolfe-Quimby amphibian culture media to label lysosomes, Golgi bodies and endoplasmic reticulum, respectively, prior to incubation with 300 μg/ml GT/GTTR for 2 hours. […] For immunocytochemistry of gentamicin, explants were incubated with 300 μg/ml unconjugated gentamicin for 30 minutes or 2 hours, fixed, ice-cold acetone-permeabilized, and processed for indirect fluorescence immunocytochemistry. […]

MDCK kidney cell line = test: Fluorescent microplate assay quantifying GTTR uptake; assay type: cell-based, canine; settings: 37° C. for two hours or room temperature for ten minutes
Source text: A fluorescent microplate assay was developed using the MDCK kidney cell line to quantify the modulation of GTTR uptake by agonists/antagonists of the TRVP1 channel (pH, Ca^2+, RTX, and iodo-RTX).

MDCK cells [4] = test: GTTR uptake, distribution and saturability in MDCK cells (2 hours); assay type: cell-based, canine
Description: MDCK cells were treated with 1 μg/ml purified GTTR for […] in complete medium at 37° C., then washed 3× with complete medium.
(§1) Both OK and MDCK cells were used in these studies. Both cell lines were treated with GTTR at 1 μg/ml in complete culture medium for two hours at either 37° C. or over ice. These cells were also treated with a dose range of 0 to 4000 μg/ml of unlabeled GT. Cells were washed and imaged live, then fixed with FATX, and washed again with buffer prior to re-imaging (as in FIG. 6, A3). […] Thus, cytoplasmic, but not endosomal, uptake of GTTR was saturable.
(§2) GTTR treatment: Subconfluent MDCK or OK cells were treated with 1 μg/mL of GTTR, in complete medium, for 2 hours at 37° C. or on ice. (The amount of GTTR is expressed as the weight of the gentamicin moiety within the conjugate.) In competition experiments, MDCK cells were simultaneously treated with unlabeled gentamicin (up to 4 mg/mL) for 2 hours.
Fixation, delipidation, and washing: After treatment, cells were washed three times with complete medium, and then immediately imaged live (see below; FIG. 27A), or fixed. […] Alternatively, cells were fixed in 4% formaldehyde alone (FA), washed and imaged (FIG. 27C), prior to delipidated with 0.5% Triton X-100 in PBS, washed thoroughly, and imaged again (FIG. 27D). […]

OK cells = test: GTTR uptake, saturability, time and temperature in OK cells; assay type: cell-based, opossum
Description: as §1, §2
Fixation, delipidation, and washing: After treatment, cells were washed three times with complete medium, and then immediately imaged live (see below; FIG. 27A), or fixed. […] Alternatively, cells were fixed in 4% formaldehyde alone (FA), washed and imaged (FIG. 27C), prior to delipidated with 0.5% Triton X-100 in PBS, washed thoroughly, and imaged again (FIG. 27D). Control cells were incubated with hydrolyzed TR (at the same concentration as the TR moiety in the GTTR experiments) and then imaged live, or fixed, delipidated, washed and then imaged.
Both OK and MDCK cells were treated with GTTR at 1 μg/mL in complete culture medium for 2 hours at either 37° C. or over ice. These cells were also treated with a dose range of 0 to 4000 μg/mL of unlabeled GT. Cells were washed and imaged live (as in FIG. 27A), then fixed with FATX, and washed again with PBS prior to re-imaging (as in FIG. 27B). […]
OK cells were treated with 1 μg/mL of GTTR in complete culture medium, at 37° C. or on ice, for increasing time periods. […] (Note that live images were acquired without washing out GTTR from the extracellular medium, so fluorescence is visible outside the cells.) No endosomes were observed on OK cells treated on ice for 2 hours (FIG. 28, B1 inset). […]

| Compound | GTTR uptake (MDCK cells [1]) | intensity of gentamicin immunofluorescence (unconjugated gentamicin uptake) (MDCK cells [2]) | GTTR fluorescence in saccular explants [3] | GTTR uptake (quantitative microplate fluorescence) (MDCK kidney cell line) | cytoplasmic and nuclear GTTR (MDCK cells [4]; 1 μg/ml GTTR 2 hours, 37° C. or ice, unlabeled GT 0 to 4000 μg/ml) | cell morphology (MDCK cells [4]; 4 mg/mL gentamicin, 2 hours) | cytoplasmic and nuclear GTTR (OK cells; OK cells, 1 μg/ml GTTR 2 hours, 37° C. or ice, unlabeled GT 0 to 4000 μg/ml) | cell morphology (OK cells; OK cells, 4 mg/mL gentamicin, 2 hours) | endosomal (vesicular) accumulation of GTTR (OK cells; live cells at 37° C., highest dose of unlabeled GT (4 mg/ml)) |
| --- | --- | --- | --- | --- | --- | --- | --- | --- | --- |
| [La+3] [La^+++, Lanthanum] | serially decreased | serially decreased |  |  |  |  |  |  |  |
| gentamicin [unlabeled GT] |  |  | reduced fluorescence in the sensory epithelium | reduced GTTR uptake | serially reduced the amount of GTTR | flattening of cells | serially reduced the amount of GTTR | flattening of cells | not visibly altered |
